From ChEMBL document CHEMBL1201861, “Genomics of Drug Sensitity in Cancer screening data, Wellcome Trust Sanger Institute”

Tests used:
Assay in all cases: cells
BHY = assay type: functional, cell-based, Homo sapiens; conditions: Homo sapiens, BHY;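 also: cell growth inhibition read out by a viability assay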
Description: SANGER: Inhibition of human BHY cell growth in a cell viability assay.

HCC 2998 = assay type: functional, cell-based, Homo sapiens; conditions: Homo sapiens, HCC 2998;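 also: growth inhibition of human HCC2998 cells, measured with a cell viability read-out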
Description: SANGER: Inhibition of human HCC2998 cell growth in a cell viability assay.

no-10 = assay type: functional, cell-based, Homo sapiens; conditions: Homo sapiens;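 also: growth inhibition of no-10 cells, read out with a cell viability assay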
Description: SANGER: Inhibition of human no-10 cell growth in a cell viability assay.

A3-KAW = assay type: functional, cell-based; conditions: Homo sapiens;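 also: growth inhibition of human A3-KAW cells, read out with a cell viability assay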
Description: SANGER: Inhibition of human A3-KAW cell growth in a cell viability assay.

647-V = assay type: functional, cell-based, Homo sapiens; conditions: Homo sapiens, 647-V;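 also: growth inhibition of 647-V cells, read out with a cell viability assay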
Description: SANGER: Inhibition of human 647-V cell growth in a cell viability assay.

RKO = assay type: functional, cell-based, Homo sapiens; conditions: Homo sapiens, RKO;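 also: growth inhibition of human RKO cells, read out with a cell viability assay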
Description: SANGER: Inhibition of human RKO cell growth in a cell viability assay.

KYSE-510 = assay type: functional, cell-based, Homo sapiens; conditions: Homo sapiens, KYSE-510;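 also: cell viability readout used to measure how strongly growth of the cell line is suppressed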
Description: SANGER: Inhibition of human KYSE-510 cell growth in a cell viability assay.

HN = assay type: functional, cell-based, Homo sapiens; conditions: Homo sapiens, HN
Description: SANGER: Inhibition of human HN cell growth in a cell viability assay.

BFTC-909 = assay type: functional, cell-based, Homo sapiens; conditions: Homo sapiens, BFTC-909
Description: SANGER: Inhibition of human BFTC-909 cell growth in a cell viability assay.

SK-N-AS = assay type: functional, cell-based, Homo sapiens; conditions: Homo sapiens, SK-N-AS;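 also: growth inhibition of human SK-N-AS cells, measured with a cell viability assay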
Description: SANGER: Inhibition of human SK-N-AS cell growth in a cell viability assay.

NY = assay type: functional, cell-based, Homo sapiens; conditions: Homo sapiens, NY
Description: SANGER: Inhibition of human NY cell growth in a cell viability assay.

SW1417 = assay type: functional, cell-based, Homo sapiens; conditions: Homo sapiens, SW1417;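 also: growth inhibition of human SW1417 cells, read out with a cell viability assay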
Description: SANGER: Inhibition of human SW1417 cell growth in a cell viability assay.

IGROV-1 = assay type: functional, cell-based, Homo sapiens; conditions: Homo sapiens, IGROV-1;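 also: reduction of IGROV-1 cell growth, read out with a viability assay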
Description: SANGER: Inhibition of human IGROV-1 cell growth in a cell viability assay.

RPMI-8226 = assay type: functional, cell-based; conditions: Homo sapiens
Description: SANGER: Inhibition of human RPMI-8226 cell growth in a cell viability assay.

DOHH-2 = assay type: functional, cell-based; conditions: Homo sapiens;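 also: growth inhibition of human DOHH-2 cells, read out with a cell viability assay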
Description: SANGER: Inhibition of human DOHH-2 cell growth in a cell viability assay.

SW948 = assay type: functional, cell-based, Homo sapiens; conditions: Homo sapiens, SW948;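 also: growth inhibition of SW948 cells, read out with a cell viability assay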
Description: SANGER: Inhibition of human SW948 cell growth in a cell viability assay.

LB1047-RCC = assay type: functional, cell-based, Homo sapiens; conditions: Homo sapiens, LB1047-RCC;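 also: inhibition of cell growth, determined with a cell viability assay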
Description: SANGER: Inhibition of human LB1047-RCC cell growth in a cell viability assay.

SW 954 = assay type: functional, cell-based, Homo sapiens; conditions: Homo sapiens, SW 954;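 also: growth inhibition of SW954 human cancer cells, read out as cell viability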
Description: SANGER: Inhibition of human SW954 cell growth in a cell viability assay.

NCI-H69 = assay type: functional, cell-based; conditions: Homo sapiens;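 also: growth inhibition of the cell line, read out with a cell viability assay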
Description: SANGER: Inhibition of human NCI-H69 cell growth in a cell viability assay.

KALS-1 = assay type: functional, cell-based, Homo sapiens; conditions: Homo sapiens, KALS-1;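 also: growth inhibition of KALS-1 cells, determined with a cell viability assay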
Description: SANGER: Inhibition of human KALS-1 cell growth in a cell viability assay.

DU-145 = assay type: functional, cell-based, Homo sapiens; conditions: Homo sapiens, DU-145
Description: SANGER: Inhibition of human DU-145 cell growth in a cell viability assay.

A101D = assay type: functional, cell-based, Homo sapiens; conditions: Homo sapiens, A101D;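 also: growth inhibition of the cell line, measured with a viability assay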
Description: SANGER: Inhibition of human A101D cell growth in a cell viability assay.

UMC-11 = assay type: functional, cell-based, Homo sapiens; conditions: Homo sapiens, UMC-11;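 also: growth inhibition of UMC-11 cells, read out with a cell viability assay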
Description: SANGER: Inhibition of human UMC-11 cell growth in a cell viability assay.

DMS-273 = assay type: functional, cell-based, Homo sapiens; conditions: Homo sapiens, DMS-273
Description: SANGER: Inhibition of human DMS-273 cell growth in a cell viability assay.

NB10 = assay type: functional, cell-based, Homo sapiens; conditions: Homo sapiens, NB10;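 also: growth inhibition of NB10 cells, read out by a cell viability assay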
Description: SANGER: Inhibition of human NB10 cell growth in a cell viability assay.

KNS-81-FD = assay type: functional, cell-based, Homo sapiens; conditions: Homo sapiens, KNS-81-FD;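 also: growth inhibition of KNS-81-FD cells, read out with a cell viability assay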
Description: SANGER: Inhibition of human KNS-81-FD cell growth in a cell viability assay.

ATN-1 = assay type: functional, cell-based; conditions: Homo sapiens;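 also: growth inhibition of human ATN-1 cells, read out with a cell viability assay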
Description: SANGER: Inhibition of human ATN-1 cell growth in a cell viability assay.

NH-12 = assay type: functional, cell-based, Homo sapiens; conditions: Homo sapiens, NH-12;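 also: growth inhibition of NH-12 cells, read out with a cell viability assay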
Description: SANGER: Inhibition of human NH-12 cell growth in a cell viability assay.

CAS-1 = assay type: functional, cell-based, Homo sapiens; conditions: Homo sapiens, CAS-1;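 also: growth inhibition of CAS-1 cells, measured with a cell viability assay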
Description: SANGER: Inhibition of human CAS-1 cell growth in a cell viability assay.

COLO-680N = assay type: functional, cell-based, Homo sapiens; conditions: Homo sapiens, COLO-680N;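 also: cell viability assay used to measure inhibition of COLO-680N cell growth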
Description: SANGER: Inhibition of human COLO-680N cell growth in a cell viability assay.

HDLM-2 = assay type: functional, cell-based; conditions: Homo sapiens;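 also: cell viability assay measuring suppression of HDLM-2 proliferation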
Description: SANGER: Inhibition of human HDLM-2 cell growth in a cell viability assay.

KP-N-YS = assay type: functional, cell-based; conditions: Homo sapiens;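 also: cell viability assay measuring inhibition of cell line growth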
Description: SANGER: Inhibition of human KP-N-YS cell growth in a cell viability assay.

LB831-BLC = assay type: functional, cell-based, Homo sapiens; conditions: Homo sapiens, LB831-BLC;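 also: growth inhibition of LB831-BLC cells, read out with a cell viability assay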
Description: SANGER: Inhibition of human LB831-BLC cell growth in a cell viability assay.

HT-29 = assay type: functional, cell-based, Homo sapiens; conditions: Homo sapiens, HT-29;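 also: growth inhibition of human HT-29 cells, read out by a cell viability assay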
Description: SANGER: Inhibition of human HT-29 cell growth in a cell viability assay.

C8166 = assay type: functional, cell-based; conditions: Homo sapiens;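 also: growth inhibition of human C8166 cells measured by a cell viability assay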
Description: SANGER: Inhibition of human C8166 cell growth in a cell viability assay.

SK-MEL-30 = assay type: functional, cell-based; conditions: Homo sapiens;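 also: growth inhibition of SK-MEL-30 cells, determined with a cell viability assay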
Description: SANGER: Inhibition of human SK-MEL-30 cell growth in a cell viability assay.

CaR-1 = assay type: functional, cell-based, Homo sapiens; conditions: Homo sapiens, CaR-1;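 also: growth inhibition of human CaR-1 cancer cells, read out with a cell viability assay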
Description: SANGER: Inhibition of human CaR-1 cell growth in a cell viability assay.

A4-Fuk = assay type: functional, cell-based; conditions: Homo sapiens;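 also: growth inhibition of A4-Fuk cells, read out by a cell viability assay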
Description: SANGER: Inhibition of human A4-Fuk cell growth in a cell viability assay.

EKVX = assay type: functional, cell-based, Homo sapiens; conditions: Homo sapiens, EKVX;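 also: growth inhibition of human EKVX cells, read out with a cell viability assay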
Description: SANGER: Inhibition of human EKVX cell growth in a cell viability assay.

HTC-C3 = assay type: functional, cell-based, Homo sapiens; conditions: Homo sapiens, HTC-C3;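 also: inhibition of cell growth, read out with a cell viability assay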
Description: SANGER: Inhibition of human HTC-C3 cell growth in a cell viability assay.

HCC38 = assay type: functional, cell-based, Homo sapiens; conditions: Homo sapiens, HCC38;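 also: cell viability assay on the human HCC38 cell line, with IC50 marking the concentration that inhibits cell growth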
Description: SANGER: Inhibition of human HCC38 cell growth in a cell viability assay.

LCLC-103H cell line = assay type: functional, cell-based, Homo sapiens; conditions: Homo sapiens, LCLC-103H
Description: SANGER: Inhibition of human LCLC-103H cell growth in a cell viability assay.

NOS-1 = assay type: functional, cell-based, Homo sapiens; conditions: Homo sapiens, NOS-1;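 also: growth inhibition of the human NOS-1 cell line, read out with a cell viability assay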
Description: SANGER: Inhibition of human NOS-1 cell growth in a cell viability assay.

SK-MEL-28 = assay type: functional, cell-based; conditions: Homo sapiens;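 also: growth inhibition of human SK-MEL-28 cells, read out with a cell viability assay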
Description: SANGER: Inhibition of human SK-MEL-28 cell growth in a cell viability assay.

NCI-H1299 = assay type: functional, cell-based, Homo sapiens; conditions: Homo sapiens, NCI-H1299;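 also: growth inhibition of human NCI-H1299 cells, read out by a cell viability assay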
Description: SANGER: Inhibition of human NCI-H1299 cell growth in a cell viability assay.

EW-3 = assay type: functional, cell-based; conditions: Homo sapiens;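 also: cell viability assay read-out, IC50 reflects inhibition of growth of the EW-3 cells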
Description: SANGER: Inhibition of human EW-3 cell growth in a cell viability assay.

AGS = assay type: functional, cell-based, Homo sapiens; conditions: Homo sapiens, AGS;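 also: growth inhibition of AGS cells, determined with a cell viability assay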
Description: SANGER: Inhibition of human AGS cell growth in a cell viability assay.

NCI-H2030 = assay type: functional, cell-based, Homo sapiens; conditions: Homo sapiens, NCI-H2030;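 also: growth inhibition of human NCI-H2030 cells, read out by a cell viability assay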
Description: SANGER: Inhibition of human NCI-H2030 cell growth in a cell viability assay.

NCI-H28 = assay type: functional, cell-based, Homo sapiens; conditions: Homo sapiens, NCI-H28;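 also: growth inhibition of human NCI-H28 cells, read out as cell viability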
Description: SANGER: Inhibition of human NCI-H28 cell growth in a cell viability assay.

OAW-42 = assay type: functional, cell-based, Homo sapiens; conditions: Homo sapiens, OAW-42;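 also: growth inhibition of OAW-42 cells, read out with a cell viability assay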
Description: SANGER: Inhibition of human OAW-42 cell growth in a cell viability assay.

ChaGo-K-1 = assay type: functional, cell-based; conditions: Homo sapiens;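 also: growth inhibition of ChaGo-K-1 cells, read out with a cell viability assay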
Description: SANGER: Inhibition of human ChaGo-K-1 cell growth in a cell viability assay.

`COc1ccc(-c2ccc3c(N4CCOC[C@@H]4C)nc(N4CCOC[C@@H]4C)nc3n2)cc1CO` [AZD-8055] gave an IC50 (BHY) of 887 nM, an IC50 (HCC 2998) of 1930 nM and an IC50 (no-10) of over 2000 nM. For the same compound, the IC50 (A3-KAW) was 297 nM, the IC50 (647-V) was 1540 nM and the IC50 (RKO) was 868 nM. The IC50 (KYSE-510) was over 2000 nM, the IC50 (HN) was 1900 nM and the IC50 (BFTC-909) was 1290 nM. For the same compound, the IC50 (SK-N-AS) was over 2000 nM, the IC50 (NY) was over 2000 nM and the IC50 (SW1417) was over 2000 nM. The IC50 (IGROV-1) was 675 nM, the IC50 (RPMI-8226) was 286 nM and the IC50 (DOHH-2) was 793 nM. For the same compound, the IC50 (SW948) was over 2000 nM, the IC50 (LB1047-RCC) was 340 nM and the IC50 (SW 954) was over 2000 nM. For the same compound, the IC50 (NCI-H69) was 1670 nM, the IC50 (KALS-1) was over 2000 nM and the IC50 (DU-145) was over 2000 nM. It also gave an IC50 (A101D) of 490 nM, an IC50 (UMC-11) of over 2000 nM and an IC50 (DMS-273) of 769 nM. For the same compound, the IC50 (NB10) was over 2000 nM, the IC50 (KNS-81-FD) was 1890 nM and the IC50 (ATN-1) was 706 nM. It also gave an IC50 (NH-12) of 1110 nM, an IC50 (CAS-1) of over 2000 nM and an IC50 (COLO-680N) of 1820 nM. For the same compound, the IC50 (HDLM-2) was 1210 nM, the IC50 (KP-N-YS) was 431 nM and the IC50 (LB831-BLC) was 1390 nM. For the same compound, the IC50 (HT-29) was over 2000 nM, the IC50 (C8166) was over 2000 nM and the IC50 (SK-MEL-30) was over 2000 nM. It also gave an IC50 (CaR-1) of 1750 nM, an IC50 (A4-Fuk) of 1200 nM and an IC50 (EKVX) of 1140 nM. For the same compound, the IC50 (HTC-C3) was 732 nM, the IC50 (HCC38) was over 2000 nM and the IC50 (LCLC-103H cell line) was over 2000 nM. For the same compound, the IC50 (NOS-1) was 411 nM, the IC50 (SK-MEL-28) was 559 nM and the IC50 (NCI-H1299) was 1500 nM. The IC50 (EW-3) was 40.6 nM, the IC50 (AGS) was 1090 nM and the IC50 (NCI-H2030) was 1240 nM. It also gave an IC50 (NCI-H28) of 587 nM, an IC50 (OAW-42) of 592 nM and an IC50 (ChaGo-K-1) of over 2000 nM.

For `CC(=O)O[C@@]12CO[C@@H]1C[C@H](O)[C@@]1(C)C(=O)[C@H](O)C3=C(C)[C@@H](OC(=O)[C@H](O)[C@@H](NC(=O)OC(C)(C)C)c4ccccc4)C[C@@](O)([C@@H](OC(=O)c4ccccc4)[C@H]21)C3(C)C` [DOCETAXEL], the IC50 (BHY) was 2.16 nM, the IC50 (HCC 2998) was 4.08 nM and the IC50 (no-10) was 7.88 nM. It also gave an IC50 (A3-KAW) of over 10 nM, an IC50 (647-V) of 1.84 nM and an IC50 (RKO) of 0.989 nM. The IC50 (KYSE-510) was 0.84 nM, the IC50 (HN) was 0.758 nM and the IC50 (BFTC-909) was 2.25 nM. For the same compound, the IC50 (SK-N-AS) was 5.35 nM, the IC50 (NY) was over 10 nM and the IC50 (SW1417) was 2.76 nM. For the same compound, the IC50 (IGROV-1) was over 10 nM, the IC50 (RPMI-8226) was 4.97 nM and the IC50 (DOHH-2) was 6.3 nM. The IC50 (SW948) was over 10 nM, the IC50 (LB1047-RCC) was 8.8 nM and the IC50 (SW 954) was 0.823 nM. The IC50 (NCI-H69) was over 10 nM, the IC50 (KALS-1) was 1.81 nM and the IC50 (DU-145) was over 10 nM. The IC50 (A101D) was over 10 nM, the IC50 (UMC-11) was over 10 nM and the IC50 (DMS-273) was 0.674 nM. It also gave an IC50 (NB10) of over 10 nM, an IC50 (KNS-81-FD) of 3.99 nM and an IC50 (ATN-1) of over 10 nM. The IC50 (NH-12) was over 10 nM, the IC50 (CAS-1) was over 10 nM and the IC50 (COLO-680N) was 5.08 nM. It also gave an IC50 (HDLM-2) of over 10 nM, an IC50 (KP-N-YS) of over 10 nM and an IC50 (LB831-BLC) of 1.48 nM. The IC50 (HT-29) was 2.8 nM, the IC50 (C8166) was over 10 nM and the IC50 (SK-MEL-30) was 7.32 nM. For the same compound, the IC50 (CaR-1) was 3.27 nM, the IC50 (A4-Fuk) was 3.9 nM and the IC50 (EKVX) was over 10 nM. For the same compound, the IC50 (HTC-C3) was 2.85 nM, the IC50 (HCC38) was 6 nM and the IC50 (LCLC-103H cell line) was 2.93 nM. The IC50 (NOS-1) was over 10 nM, the IC50 (SK-MEL-28) was 2.03 nM and the IC50 (NCI-H1299) was 8.57 nM. The IC50 (EW-3) was 0.745 nM, the IC50 (AGS) was 3.28 nM and the IC50 (NCI-H2030) was over 10 nM. It also gave an IC50 (NCI-H28) of 3.34 nM, an IC50 (OAW-42) of over 10 nM and an IC50 (ChaGo-K-1) of 9.88 nM.
